Measurements taken from patent publication US8420696B2, “Use of low-dose ladostigil for neuroprotection” (priority 2005, dated 2013).

Key:
[1] = tested on: rats injected icv with Aβ(1-40); settings: cited from earlier work
[2] = tested on: memory deficits after icv injections of STZ; settings: chronic treatment; cited from earlier work
MAO-A = assay: In vivo MAO inhibition assay (MAO-A); parameters: species or system Rats and mice
Procedure: (§1) The level of MAO (MAO-A and MAO-B) inhibition can be determined by routine methods, including those detailed below.
(§2) Rats and mice are treated by subcutaneous (s.c.) or intraperitoneal (i.p.) injection or oral (p.o.) administration of the compound to be tested. Animals are decapitated approximately 2 hours after drug treatment and MAO activity is determined in the brain, intestine, and/or liver. MAO activity is expressed as percentage of enzyme activity relative to a control group administered with vehicle only. Effective doses producing 50% MAO inhibition (ED50 values) are calculated from inhibition curves.
(§3) Repeated treatment by ladostigil (e.g. daily doses for 7 days) can be used to calculate inhibition achieved through chronic administration.

MAO-B = assay: In vivo MAO inhibition assay (MAO-B); parameters: species or system Rats and mice
Procedure: as §1, §2, §3

ChE = assay: In vivo ChE inhibition assay; parameters: species or system cynomolgus monkeys; settings: acute or chronic administration, amounts up to 7.0 mg/kg ladostigil base
Procedure: The level of ChE inhibition can be determined by routine methods, including those detailed below.
In vivo measurement of ChE inhibition is similar to that of in vivo measurement of MAO inhibition, except that cynomolgus monkeys are treated, and tissues are examined for brain, plasma and erythrocytes ChE inhibition.

[3] = acute administration, amounts up to 20.4 mg/kg of ladostigil base
[4] = chronic administration, amounts up to 4.5 mg/kg of ladostigil base

## CC12CC3CC(C)(C1)CC(N)(C3)C2 [memantine]
[1]
  Activation of microglia and astrocytes and memory deficits after icv Aβ(1-40): reduced the activation of microglia and astrocytes and the memory deficits

## COc1ccc2[nH]cc(CCNC(C)=O)c2c1 [melatonin]
[2]
  Memory deficits 3-8 weeks after icv STZ: can be reduced

## R(+)-6-(N-methyl,N-ethyl-carbamoyloxy)-N′-propargyl-1-aminoindan [ladostigil tartrate]
MAO-A; [3]
  MAO inhibition (MAO-A): no more than 25%
MAO-A; [4]
  MAO inhibition (MAO-A): no more than 25%
MAO-B; [3]
  MAO inhibition (MAO-B): no more than 25%
MAO-B; [4]
  MAO inhibition (MAO-B): no more than 25%
ChE
  ChE inhibition: no more than 30%

## Oc1ccc(C=Cc2cc(O)cc(O)c2)cc1 [resveratrol]
[2]
  Memory deficits 3-8 weeks after icv STZ: can be reduced
